Experimental data: PubChem BioAssay (NCI)
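Compound exposure: 48 hours, 5 concentrations, 96-well plates. Abbreviation: GI50, concentration required for 50% inhibition of growth. TGI: concentration producing complete growth inhibition.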

How the values were obtained:
Assay in all cases: DTP human tumour cell line panel, 48 h
786-0 renal = tested on: 786-0 renal
A498 renal = tested on: A498 renal
A549 NSCLC = tested on: A549 NSCLC
ACHN renal = tested on: ACHN renal
BT-549 breast = tested on: BT-549 breast
CAKI-1 renal = tested on: CAKI-1 renal
CCRF-CEM leukemia = tested on: CCRF-CEM leukemia
COLO 205 colon = tested on: COLO 205 colon
DU-145 prostate = tested on: DU-145 prostate
HCC-2998 colon = tested on: HCC-2998 colon
HCT-15 colon = tested on: HCT-15 colon
HL-60(TB) leukemia = tested on: HL-60(TB) leukemia
HOP-62 NSCLC = tested on: HOP-62 NSCLC
HOP-92 NSCLC = tested on: HOP-92 NSCLC
HS 578T breast = tested on: HS 578T breast
HT29 colon = tested on: HT29 colon
IGROV1 ovarian = tested on: IGROV1 ovarian
KM12 colon = tested on: KM12 colon
LOX IMVI melanoma = tested on: LOX IMVI melanoma
MALME-3M melanoma = tested on: MALME-3M melanoma
MDA-MB-231 breast = tested on: MDA-MB-231 breast
MDA-MB-435 = tested on: MDA-MB-435
NCI-H226 lung = tested on: NCI-H226 lung
NCI-H23 lung = tested on: NCI-H23 lung
NCI-H460 lung = tested on: NCI-H460 lung
NCI-H522 lung = tested on: NCI-H522 lung
NCI/ADR-RES ovarian = tested on: NCI/ADR-RES ovarian
OVCAR-3 ovarian = tested on: OVCAR-3 ovarian
OVCAR-5 ovarian = tested on: OVCAR-5 ovarian
OVCAR-8 ovarian = tested on: OVCAR-8 ovarian
PC-3 prostate = tested on: PC-3 prostate
RPMI-8226 leukemia = tested on: RPMI-8226 leukemia
RXF 393 renal = tested on: RXF 393 renal
SF-268 CNS = tested on: SF-268 CNS
SF-295 CNS = tested on: SF-295 CNS
SF-539 CNS = tested on: SF-539 CNS
SK-MEL-2 melanoma = tested on: SK-MEL-2 melanoma
SK-MEL-28 melanoma = tested on: SK-MEL-28 melanoma
SK-MEL-5 melanoma = tested on: SK-MEL-5 melanoma
SK-OV-3 ovarian = tested on: SK-OV-3 ovarian
SN12C renal = tested on: SN12C renal
SNB-19 CNS = tested on: SNB-19 CNS
SNB-75 CNS = tested on: SNB-75 CNS
SR leukemia = tested on: SR leukemia
SW-620 colon = tested on: SW-620 colon
TK-10 renal = tested on: TK-10 renal
UACC-257 melanoma = tested on: UACC-257 melanoma
UACC-62 melanoma = tested on: UACC-62 melanoma
UO-31 renal = tested on: UO-31 renal

**Q.** Which results are given for `Nc1ccc(-c2nc3ccc(Cc4ccc5nc(-c6ccc(N)cc6)[nH]c5c4)cc3[nH]2)cc1`?
**A.** GI50 (786-0 renal): 4.52 µM; TGI (786-0 renal): 31.6 µM; GI50 (A498 renal): 0.855 µM; TGI (A498 renal): 21.4 µM; GI50 (A549 NSCLC): 20.8 µM; TGI (A549 NSCLC): 57.7 µM; GI50 (ACHN renal): 17.9 µM; TGI (ACHN renal): 37.5 µM; GI50 (BT-549 breast): 9.86 µM; TGI (BT-549 breast): 67.2 µM; GI50 (CAKI-1 renal): 45.6 µM; TGI (CAKI-1 renal): > 100 µM; GI50 (CCRF-CEM leukemia): 2.12 µM; TGI (CCRF-CEM leukemia): 6.7 µM; GI50 (COLO 205 colon): 1.65 µM; TGI (COLO 205 colon): 3.2 µM; GI50 (DU-145 prostate): 11.1 µM; TGI (DU-145 prostate): 24.2 µM; GI50 (HCC-2998 colon): 2.84 µM; TGI (HCC-2998 colon): 12.1 µM; GI50 (HCT-15 colon): 14.8 µM; TGI (HCT-15 colon): 47.9 µM; GI50 (HL-60(TB) leukemia): 10.4 µM; TGI (HL-60(TB) leukemia): 36.9 µM; GI50 (HOP-62 NSCLC): 6.53 µM; TGI (HOP-62 NSCLC): 35 µM; GI50 (HOP-92 NSCLC): 16.5 µM; TGI (HOP-92 NSCLC): 39 µM; GI50 (HS 578T breast): 13 µM; TGI (HS 578T breast): 39.5 µM; GI50 (HT29 colon): 1.89 µM; TGI (HT29 colon): 4.1 µM; GI50 (IGROV1 ovarian): 16.9 µM; TGI (IGROV1 ovarian): 39.8 µM; GI50 (KM12 colon): 1.37 µM; TGI (KM12 colon): 3.05 µM; GI50 (LOX IMVI melanoma): 2.28 µM; TGI (LOX IMVI melanoma): 5.32 µM; GI50 (MALME-3M melanoma): 2.04 µM; TGI (MALME-3M melanoma): 4.53 µM; GI50 (MDA-MB-231 breast): 2.14 µM; TGI (MDA-MB-231 breast): 5.18 µM; GI50 (MDA-MB-435): 1.45 µM; TGI (MDA-MB-435): 3.67 µM; GI50 (NCI-H226 lung): 8.06 µM; TGI (NCI-H226 lung): 36.9 µM; GI50 (NCI-H23 lung): 3.83 µM; TGI (NCI-H23 lung): 22.3 µM; GI50 (NCI-H460 lung): 14.4 µM; TGI (NCI-H460 lung): 37.1 µM; GI50 (NCI-H522 lung): 1.97 µM; TGI (NCI-H522 lung): 4.87 µM; GI50 (NCI/ADR-RES ovarian): > 100 µM; TGI (NCI/ADR-RES ovarian): > 100 µM; GI50 (OVCAR-3 ovarian): 1.76 µM; TGI (OVCAR-3 ovarian): 3.31 µM; GI50 (OVCAR-5 ovarian): 12 µM; TGI (OVCAR-5 ovarian): 30 µM; GI50 (OVCAR-8 ovarian): 2.48 µM; TGI (OVCAR-8 ovarian): 6.58 µM; GI50 (PC-3 prostate): 4.25 µM; TGI (PC-3 prostate): 20.1 µM; GI50 (RPMI-8226 leukemia): 25.7 µM; TGI (RPMI-8226 leukemia): > 100 µM; GI50 (RXF 393 renal): 15.7 µM; TGI (RXF 393 renal): 42.9 µM; GI50 (SF-268 CNS): 4.23 µM; TGI (SF-268 CNS): 26.9 µM; GI50 (SF-295 CNS): 12.8 µM; TGI (SF-295 CNS): 32.4 µM; GI50 (SF-539 CNS): 1.91 µM; TGI (SF-539 CNS): 3.91 µM; GI50 (SK-MEL-2 melanoma): 12.6 µM; TGI (SK-MEL-2 melanoma): 35.4 µM; GI50 (SK-MEL-28 melanoma): 1.93 µM; TGI (SK-MEL-28 melanoma): 4.27 µM; GI50 (SK-MEL-5 melanoma): 5.22 µM; TGI (SK-MEL-5 melanoma): 34.1 µM; GI50 (SK-OV-3 ovarian): 18.9 µM; TGI (SK-OV-3 ovarian): 40.6 µM; GI50 (SN12C renal): 8.75 µM; TGI (SN12C renal): 29 µM; GI50 (SNB-19 CNS): 3.24 µM; TGI (SNB-19 CNS): 18.2 µM; GI50 (SNB-75 CNS): 12.3 µM; TGI (SNB-75 CNS): 28.9 µM; GI50 (SR leukemia): 1.48 µM; TGI (SR leukemia): > 100 µM; GI50 (SW-620 colon): 1.8 µM; TGI (SW-620 colon): 3.46 µM; GI50 (TK-10 renal): 24.4 µM; TGI (TK-10 renal): 43.3 µM; GI50 (UACC-257 melanoma): 20.6 µM; TGI (UACC-257 melanoma): 45.7 µM; GI50 (UACC-62 melanoma): 3.59 µM; TGI (UACC-62 melanoma): 17.8 µM; GI50 (UO-31 renal): 45.4 µM; TGI (UO-31 renal): > 100 µM
